Type in all cases: cell-based
Data set [1] concerns PC12-ND6 cells. In words: Neurite outgrowth with dbcAMP. The method, then: (§1) FIG. 13A-13E are images from microscopy and graphs showing that the timing of NaBt treatment is critical for enhancing neuronal differentiation of PC12-ND6 cells upon sub-optimal neurotrophic cues. (A) Confocal micrographs of PC12-ND6 cells treated with dbcAMP alone or with NaBt (5 mM) in a simultaneous or sequential manner. Scale bar represents 5 μm. (B) Graph of neurite length. Mean±SEM (n=50 for each condition; compared to control (no NaBt) *p=0.0001 and **p=0.0009). (C) Confocal micrographs of PC12-ND6 cells treated with sub-optimal NGF concentration (10 ng/ml) alone or first NaBt (5 mM) in a simultaneous or sequential manner. Scale bar represents 10 μm. (D) Graph of average total neurite length. Mean±SEM (n=50 for each condition; compared to control *p=0.0001). (E) Graph of the frequency of total neurite length below and above 90 μm.
The timing of NaBt pre-treatment is critical for enhancing neuronal differentiation of PC12-ND6 cells and potentiating sub-optimal neurotrophic cues. We next investigated whether NaBt-mediated increase of mitochondrial biogenesis could potentiate subsequent sub-optimal neurotrophic cues to trigger effective neurite outgrowth in PC12-ND6 cells and whether a temporal window for NaBt responsiveness might exist. […]

The test system of data set [2] is histones H2B, H3 and H4 proteins. The data set is described as follows: Acetylation of specific lysine residues of histones (immunocytochemistry). The following applies: NaBt 5 mM, three days, PC12-ND6 cells. The method, then: PC12-ND 6 cells were treated with NaBt (5 mM) for three days before performing immunocytochemistry to evaluate the acetylation status of lysine residues of key histone proteins, as listed on top of each confocal micrograph. Left panels illustrate representative pictures of PC12-ND6 cells grown in the absence (control) or presence of NaBt for three days and labeled with specific acetylated Lys antibody (green) and DAPI as a nuclear label (blue). Scale bar represents 10 μm. The right panels show the graph for each quantification of acetylated lysine residue for key histone proteins. Results are expressed as relative fluorescence intensity±S.D. (1000 cells per condition; n=3; * p=0.0001).
Sodium butyrate induces epigenetic reprogramming by acetylating key amino acid residues of histone proteins H2B, H3 and H4. Histone acetylation, which is mediated by two groups of enzymes, histone acetyltransferases (HATs) and histone deacetylases (HDAC), promote gene expression responsible to induce differentiation of neural stem cells and neural progenitor cells. Epigenetic regulators, such as the NaBt and its derivatives, inhibit the activity of HDAC enzymes, thereby favoring HAT activity and inducing an open chromatin structure to allow easy access to the DNA via histone acetylation. Thus, which lysine residues of key histone proteins were targeted by NaBt ws investigated. The lysine residue K27 of the histone H3 protein was targeted, as it is known to be acetylated to favor expression of lineage-specific genes associated with neural differentiation of progenitors and stem cells. Immunocytochemistry results confirmed that NaBt induced a 210% increased acetylation of the K27 residue of H3 (FIG. 5). Analysis was extended to additional acetylation marks, such as the lysine residue K9 of the histone H3, the K12 residue of histone H4 […] are important indicators of active enhancer elements. […] Thus, NaBt induces a specific epigenetic reprogramming of neural-like progenitor PC12-ND6 cell by inducing a series of acetylation marks to confer transcriptional competence.

Data set [3] has as its system PC12-ND6 cells. In words: Cell viability by live-cell confocal microscopy (Nuclear-ID stain). The conditions noted are these: 5 mM NaBt, three days. The source says: (§2) FIG. 4A-4E are images from microscopy and graphs showing NaBt dose-dependent acetylation and cellular toxicity in PC12-ND6 cells and embryonic E17.5 hippocampal neurons. (A) Confocal micrographs of PC12-ND6 cells (referred to as ND6) grown in the absence or presence of NaBt for three days and labeled with an anti-acetylated Lys antibody (AcLys; green). Scale bar represents 10 μm. […] Results are expressed as relative fluorescence intensity±S.D. (n=250 cells per NaBt concentration; * p=0.0001). (C) Effect of NaBt on PC12-ND6 cell viability. […] Mean±SEM (n=250 cells for each experimental condition; * p=0.0001). (D) Confocal micrographs of NaBt dose-dependent acetylation in E17.5 hippocampal neurons (AcLys; green). Scale bar represents 10 μm.
(§3) Sodium butyrate increases protein acetylation in a dose-dependent manner without inducing cellular toxicity. A dose response analysis was performed to determine the optimal concentration of sodium butyrate (NaBt) for inducing maximal acetylation levels with minimal cellular toxicity. PC12-ND6 cells were treated with different concentrations of NaBt (2 mM, 5 mM, and 10 mM) for three days before assessing the degree of acetylated lysine residues by immunocytochemistry and cell viability by live-cell confocal microscopy using the Nuclear-ID™ stain.

The subject of data set [4] is PC12-ND6 cells. In words: Neurite outgrowth with sub-optimal NGF (10 ng/ml). The method, then: as §1
NaBt-mediated modulation of the neuronal potential of PC12-ND6 cells in the context of sub-optimal NGF concentration (10 ng/ml) was further investigated. Transfected PC12-ND6 cells were first treated with NaBt (5 mM) for three days prior to NGF exposure (10 ng/ml). A time course analysis of neurite outgrowth was conducted during the first two days of NGF exposure by live-cell confocal microscopy. […] Such trend of neurite extension was maintained at day 2 of NGF exposure with NaBt-pre-treated or co-treated PC12-ND6 cells. Whether NaBt added concomitantly with NGF (10 ng/ml) could mediate increased neuritogenesis was also assessed.

For data set [5], the system named is PC12-ND6 cells. In words: NaBt dose-dependent acetylation of nuclear proteins (anti-acetylated Lys immunocytochemistry). The conditions noted are these: three days, 2, 5 and 10 mM tested.
Description: as §2, §3

In the case of `CCCC(=O)[O-].[Na+]` [NaBt, sodium butyrate], the neuritogenesis upon co-addition entry in the data set with PC12-ND6 cells [1] (NaBt 5 mM and dbcAMP 1 mM added together) was “severely dampened”. For the same compound, the neurite length in the data set on PC12-ND6 cells [1] (NaBt pre-treatment three days at highest dose, then dbcAMP 1 mM 24 hours) is listed as 50 μm. Also, in data set [2], the “acetylation of histone H2B” value is given as “hyperacetylated”, the “increased acetylation of H3K9” value amounted to 250%, the “increased acetylation of H4K12” value is recorded as 124% and the “increased acetylation of the K27 residue of H3” value is given as 210%. Further, in the data set on PC12-ND6 cells [3], the cell death entry is given as “negligible cell death”. The “neurite outgrowth, NaBt and NGF administered simultaneously” value in the data set with PC12-ND6 cells [4] (NGF 10 ng/ml) is “No synergistic effect”. In addition, the “average total neurite length” value with PC12-ND6 cells [4] (NaBt 5 mM three days pre-treatment, 24 hours NGF 10 ng/ml, control 60 μm) was found to be 168 μm. Further, the “percent of neurites longer than 90 μm” value with PC12-ND6 cells [4] (NaBt pre-treated, NGF 10 ng/ml, control 16%) was determined as 79%. In the data set with PC12-ND6 cells [5], the “NaBt concentration showing maximal acetylation levels of nuclear proteins” value came out at 5 mM.

(Values after patent US10272056B2, “Treatment for mitochondrial diseases” (The George Washington University a Congressionally …, priority 2015, dated 2019).)
